Laboratory results published in US9540691B2, “Assays and methods for selecting a treatment regimen for a subject with depression” (THE GENERAL HOSPITAL CORPORATION, priority 2011, dated 2017).
Where two headings read alike, the source gives them in different places.

Tested on: patients with major depressive disorder (MDD) resistant to treatment with SSRIs
Source text: Using the sequential parallel design […] For those randomly assigned to the placebo/placebo sequence, both responders and non-responders to placebo during the first phase (n=25) remain on placebo during the second phase. […] Data from the previous double-blind, placebo-controlled study (Trial 1) can be pooled into the instant study (Trial 2) to provide a more accurate estimate of the placebo effect size, with a weighted average from the two Phases 1 (one from Trial 1 and one from Trial 2) and two Phases 2 (one from Trial 1 and one from Trial 2).
Once patients agree to participate in the study by signing the informed consent document, a full medical and psychiatric history is taken and a physical examination is performed. Screen rating scales are performed. […] The double-blind treatment lasts 60 days, during which patients are seen every 10 days (Visits 1 to 6 of Phase 1—See Table 4 below). Subjects are assigned randomization numbers in consecutive order. The randomization list is provided by a computer-generated random-number list and is maintained by the research pharmacist. In addition, the presence of any side effect or adverse event is carefully documented with the SAFTEE-SI [54]. Reasons for premature discontinuation, including intolerable side effects, are recorded.
All patients are asked to take one tablet of blinded study medication in the morning, in addition to their stable dose of ongoing SSRI treatment. […] Therefore, for patients randomly assigned to the placebo/placebo sequence, the tablets of study medication are placebo during both phases of the study.
The primary efficacy measure can include the change in 17-item Hamilton Rating Scale for Depression (HAM-D-17) score. […] A remission is, for example, defined as a HAM-D-17 score less than 8 at endpoint. Secondary measures of efficacy can include change in CGI-severity, with “clinical response defined” as CGI-S of 1 or 2 at endpoint. Patients with a CGI-I score greater than 5 at any post baseline visit or a 50 percent or greater worsening of depressive symptoms from baseline to that visit are discontinued from the study. Subjects are also discontinued from the study with any emergence of suicidality, homicidality, mania, or psychosis. Additional exemplary instruments that can be administered according to the study schedule include the following: • (1) Structured Clinical Interview for DSM-IV: The SCID-I/P, administered by the clinician, proceeds by modules to diagnose the different Axis I disorders. Questions are asked exactly as written, and each is based on the individual criteria from DSM-IV. Answers are generally rated on a scale of 1-3 (1=doubtful, 2=probable, 3=definite), and, based on the number of positive answers, a diagnosis is determined by a clinician. While the entire SCID-UP is administered at screen, the mood module is administered at each follow up visit. • (2) The MGH Antidepressant Treatment History Questionnaire (MGH-ATR): The MGH-ATR provides specific criteria for the adequate dose and adequate length of a trial for it to be considered a failure, thus allowing clinicians to systematically collect data aimed at assessing the degree of treatment-resistance of the current major depressive episode. • (3) The 28-item Hamilton Depression Scale (HAM-D-28): This version allows scoring of the HAM-D-17, 21-, 25-, and 28-item scales. This instrument is completed by the clinician by using a structured interview and defined anchor points, and aims to quantify the degree of depression over the past 7 days. The HAM-D is the most widely studied instrument for depression, and its reliability and validity are high. • (4) Clinical Global Impressions-Severity and Improvement (CGI-S, CGI-I): These two instruments are scored 1-7 by the clinician based on assessment of the patient's clinical status. They measure, based on history and scores on other instruments: a) Depressive severity (CGI-S) and b) Clinical Improvement (CGI-I). […] Safety Measurements […]

[1] = 15 mg/day adjunct to SSRI, Phase 1
[2] = 15 mg/day adjunct to SSRI, Phase 2 (Phase 1 completers/non-responders only)
[3] = 15 mg/day adjunct to SSRI, pooled Phases 1 and 2 (SPCD)

Q: Which results are given for `CN1c2c(nc(N)[nH]c2=O)NC[C@@H]1CNc1ccc(C(=O)N[C@@H](CCC(=O)O)C(=O)O)cc1` [6(S)-5-MTHF, 6(S)-5-methyltetrahydrofolate]?
A: CGI-S Mean score reduction (SD) [1]: −1.3 (0.9); HDRS-17 % Remission [1]: 15.7% (3); HDRS-17 % Response [1]: 38.8% (7); HDRS-17 Mean score reduction (SD) [1]: −7.5 (5.0); QIDS-SR % Remission [1]: 21.0% (4); QIDS-SR % Responsive [1]: 36.8% (7); QIDS-SR Mean score reduction (SD) [1]: −8.1 (5.3); CGI-S Mean score reduction (SD) [2]: −0.5 (1.0); HDRS-17 % Remission [2]: 11.1% (2); HDRS-17 % Response [2]: 27.7% (5); HDRS-17 Mean score reduction (SD) [2]: −3.8 (6.2); QIDS-SR % Remission [2]: 8.5% (1); QIDS-SR % Responsive [2]: 11.1% (2); QIDS-SR Mean score reduction (SD) [2]: −1.3 (4.9); CGI-S Mean score reduction [3]: −0.92; QIDS-SR % Remission [3]: 12.3%; QIDS-SR % Responsive [3]: 23.9%; QIDS-SR Mean score reduction [3]: −4.7; response rate (50% or greater reduction in HAM-D-17) vs placebo group (in words) (SSRI + 15 mg/day, after 30 days, SPCD, FIG. 3A): higher; reduction in scores of HAM-D-17, QIDS-SR and CGI-S vs placebo group (in words) (SSRI + 15 mg/day, after 30 days, SPCD, FIG. 3B): greater degree of reduction; percentage of remitters (HAM-D-17 <8 or QIDS-SR ≦5) vs placebo (in words) (SSRI + 15 mg/day, after 30 days, FIGS. 3C-3D): no significant difference
